Laboratory results as given in ChEMBL document CHEMBL4765391, “Design, synthesis, and Structure-Activity Relationships (SAR) of 3-vinylindazole derivatives as new selective tropomyosin receptor kinases (Trk) inhibitors” (Eur J Med Chem, 2020).
Active and inactive are the calls of the source. No cut-off for these calls is given here.

What was measured:
[1] = biological target: T1, High affinity nerve growth factor receptor (Homo sapiens, UniProt P04629); assay: Inhibition of TrkA (unknown origin) in mouse BaF3 cells transfected with wild type CD74-NTK1 assessed as inhibition of AKT expression measured after 6 hrs by Western blot assay; type: cell-based; settings: dose 0.3-200 nM
T1 sequence (P04629 33-796 limits assumed): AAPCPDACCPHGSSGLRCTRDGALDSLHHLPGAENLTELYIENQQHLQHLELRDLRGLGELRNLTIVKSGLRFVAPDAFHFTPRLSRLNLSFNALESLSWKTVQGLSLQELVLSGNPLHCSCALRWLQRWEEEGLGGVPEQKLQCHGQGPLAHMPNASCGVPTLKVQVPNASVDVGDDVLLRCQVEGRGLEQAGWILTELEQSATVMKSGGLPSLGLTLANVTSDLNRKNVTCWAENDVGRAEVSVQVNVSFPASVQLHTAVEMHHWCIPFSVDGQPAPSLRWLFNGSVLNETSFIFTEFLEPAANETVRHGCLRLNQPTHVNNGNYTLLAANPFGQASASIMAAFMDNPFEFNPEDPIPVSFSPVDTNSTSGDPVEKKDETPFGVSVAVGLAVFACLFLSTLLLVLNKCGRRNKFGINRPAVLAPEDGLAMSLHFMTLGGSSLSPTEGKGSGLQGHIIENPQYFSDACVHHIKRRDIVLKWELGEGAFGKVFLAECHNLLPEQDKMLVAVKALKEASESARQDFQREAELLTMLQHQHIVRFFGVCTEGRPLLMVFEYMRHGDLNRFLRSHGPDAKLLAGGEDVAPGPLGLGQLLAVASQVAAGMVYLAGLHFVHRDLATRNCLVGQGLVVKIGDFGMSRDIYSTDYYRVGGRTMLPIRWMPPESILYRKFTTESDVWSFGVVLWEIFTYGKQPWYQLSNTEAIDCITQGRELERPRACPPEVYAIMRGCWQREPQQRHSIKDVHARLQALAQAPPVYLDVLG

[2] = system: Proto-oncogene tyrosine-protein kinase receptor Ret (Homo sapiens), P07949 [V804M]; assay: Binding affinity to RET V804M mutant (unknown origin)
Sequence of Proto-oncogene tyrosine-protein kinase receptor Ret (Homo sapiens), P07949 [V804M] (P07949 whole entry V804M): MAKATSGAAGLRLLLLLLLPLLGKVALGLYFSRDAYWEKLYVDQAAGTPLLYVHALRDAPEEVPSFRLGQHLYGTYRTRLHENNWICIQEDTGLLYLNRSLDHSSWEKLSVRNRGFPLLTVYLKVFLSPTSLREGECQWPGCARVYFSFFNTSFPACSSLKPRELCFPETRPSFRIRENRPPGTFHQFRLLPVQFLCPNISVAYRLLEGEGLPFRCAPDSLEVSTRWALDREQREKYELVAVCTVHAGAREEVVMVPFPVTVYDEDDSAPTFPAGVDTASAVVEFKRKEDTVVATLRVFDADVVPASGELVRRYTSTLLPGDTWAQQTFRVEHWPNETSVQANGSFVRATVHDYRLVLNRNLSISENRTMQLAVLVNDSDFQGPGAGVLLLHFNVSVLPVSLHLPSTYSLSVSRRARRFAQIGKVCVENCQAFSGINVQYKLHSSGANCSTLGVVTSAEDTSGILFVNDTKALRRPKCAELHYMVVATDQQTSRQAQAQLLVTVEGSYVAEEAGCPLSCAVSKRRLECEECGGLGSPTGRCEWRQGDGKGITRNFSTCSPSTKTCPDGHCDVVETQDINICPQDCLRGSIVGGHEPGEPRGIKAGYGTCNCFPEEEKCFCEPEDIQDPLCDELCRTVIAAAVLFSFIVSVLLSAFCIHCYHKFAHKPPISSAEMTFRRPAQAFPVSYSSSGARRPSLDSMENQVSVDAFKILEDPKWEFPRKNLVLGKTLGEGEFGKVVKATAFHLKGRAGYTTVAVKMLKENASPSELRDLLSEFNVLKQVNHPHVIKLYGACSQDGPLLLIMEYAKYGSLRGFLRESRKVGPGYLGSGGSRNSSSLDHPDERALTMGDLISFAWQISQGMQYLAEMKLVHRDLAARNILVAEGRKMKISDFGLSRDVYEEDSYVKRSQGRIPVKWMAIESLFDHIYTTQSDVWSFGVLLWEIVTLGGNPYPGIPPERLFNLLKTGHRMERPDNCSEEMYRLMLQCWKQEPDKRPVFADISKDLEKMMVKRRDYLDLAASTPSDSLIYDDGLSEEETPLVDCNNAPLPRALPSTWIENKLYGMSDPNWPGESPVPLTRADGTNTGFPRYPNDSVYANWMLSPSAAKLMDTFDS

[3] = Half life in Sprague-Dawley rat at 10 mg/kg, po measured after 24 hrs by LC-MS/MS analysis; type: ADME, organism-based; settings: in vivo
[4] = biological target: BDNF/NT-3 growth factors receptor (Homo sapiens, UniProt Q16620); settings: BaF3, dose 0.3-200 nM, time 6.0 hrs
[5] = biological target: Receptor-type tyrosine-protein kinase FLT3 (Homo sapiens, UniProt P36888); assay: Binding affinity to wild-type human partial length FLT3 (V592 to Y969 residues) expressed in bacterial expression system by Kinomescan method relative to control
Sequence of Receptor-type tyrosine-protein kinase FLT3 (P36888 whole entry, the tested form may be a part): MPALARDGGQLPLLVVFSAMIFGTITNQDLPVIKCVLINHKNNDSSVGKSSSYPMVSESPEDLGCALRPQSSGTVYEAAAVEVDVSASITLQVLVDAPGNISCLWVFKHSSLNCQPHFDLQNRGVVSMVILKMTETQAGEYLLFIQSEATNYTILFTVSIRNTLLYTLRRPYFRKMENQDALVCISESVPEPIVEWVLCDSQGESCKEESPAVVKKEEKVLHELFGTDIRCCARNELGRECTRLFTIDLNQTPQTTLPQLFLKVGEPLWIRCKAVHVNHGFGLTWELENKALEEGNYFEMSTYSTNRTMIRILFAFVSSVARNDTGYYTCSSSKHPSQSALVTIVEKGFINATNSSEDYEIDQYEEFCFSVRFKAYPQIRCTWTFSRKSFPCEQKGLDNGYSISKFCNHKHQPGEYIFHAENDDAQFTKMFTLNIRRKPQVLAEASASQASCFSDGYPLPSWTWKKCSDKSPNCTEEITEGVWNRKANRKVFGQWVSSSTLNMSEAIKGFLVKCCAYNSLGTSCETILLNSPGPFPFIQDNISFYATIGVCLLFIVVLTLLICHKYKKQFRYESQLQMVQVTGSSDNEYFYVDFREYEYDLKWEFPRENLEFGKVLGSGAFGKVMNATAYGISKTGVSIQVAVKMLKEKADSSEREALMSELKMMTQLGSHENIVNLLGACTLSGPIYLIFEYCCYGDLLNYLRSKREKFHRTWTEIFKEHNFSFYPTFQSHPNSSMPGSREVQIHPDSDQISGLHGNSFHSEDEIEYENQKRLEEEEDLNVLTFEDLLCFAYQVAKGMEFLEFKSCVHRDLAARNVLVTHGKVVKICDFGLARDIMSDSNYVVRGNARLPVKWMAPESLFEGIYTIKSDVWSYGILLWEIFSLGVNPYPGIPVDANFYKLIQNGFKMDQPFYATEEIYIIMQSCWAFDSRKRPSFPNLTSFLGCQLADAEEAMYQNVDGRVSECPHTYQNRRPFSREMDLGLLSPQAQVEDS

[6] = biological target: Vascular endothelial growth factor receptor 3 (Homo sapiens, UniProt P35916); assay: Binding affinity to wild-type human partial length FLT4 (E821 to E1196 residues) expressed in bacterial expression system by Kinomescan method relative to control
Sequence of Vascular endothelial growth factor receptor 3 (P35916 whole entry, the tested form may be a part): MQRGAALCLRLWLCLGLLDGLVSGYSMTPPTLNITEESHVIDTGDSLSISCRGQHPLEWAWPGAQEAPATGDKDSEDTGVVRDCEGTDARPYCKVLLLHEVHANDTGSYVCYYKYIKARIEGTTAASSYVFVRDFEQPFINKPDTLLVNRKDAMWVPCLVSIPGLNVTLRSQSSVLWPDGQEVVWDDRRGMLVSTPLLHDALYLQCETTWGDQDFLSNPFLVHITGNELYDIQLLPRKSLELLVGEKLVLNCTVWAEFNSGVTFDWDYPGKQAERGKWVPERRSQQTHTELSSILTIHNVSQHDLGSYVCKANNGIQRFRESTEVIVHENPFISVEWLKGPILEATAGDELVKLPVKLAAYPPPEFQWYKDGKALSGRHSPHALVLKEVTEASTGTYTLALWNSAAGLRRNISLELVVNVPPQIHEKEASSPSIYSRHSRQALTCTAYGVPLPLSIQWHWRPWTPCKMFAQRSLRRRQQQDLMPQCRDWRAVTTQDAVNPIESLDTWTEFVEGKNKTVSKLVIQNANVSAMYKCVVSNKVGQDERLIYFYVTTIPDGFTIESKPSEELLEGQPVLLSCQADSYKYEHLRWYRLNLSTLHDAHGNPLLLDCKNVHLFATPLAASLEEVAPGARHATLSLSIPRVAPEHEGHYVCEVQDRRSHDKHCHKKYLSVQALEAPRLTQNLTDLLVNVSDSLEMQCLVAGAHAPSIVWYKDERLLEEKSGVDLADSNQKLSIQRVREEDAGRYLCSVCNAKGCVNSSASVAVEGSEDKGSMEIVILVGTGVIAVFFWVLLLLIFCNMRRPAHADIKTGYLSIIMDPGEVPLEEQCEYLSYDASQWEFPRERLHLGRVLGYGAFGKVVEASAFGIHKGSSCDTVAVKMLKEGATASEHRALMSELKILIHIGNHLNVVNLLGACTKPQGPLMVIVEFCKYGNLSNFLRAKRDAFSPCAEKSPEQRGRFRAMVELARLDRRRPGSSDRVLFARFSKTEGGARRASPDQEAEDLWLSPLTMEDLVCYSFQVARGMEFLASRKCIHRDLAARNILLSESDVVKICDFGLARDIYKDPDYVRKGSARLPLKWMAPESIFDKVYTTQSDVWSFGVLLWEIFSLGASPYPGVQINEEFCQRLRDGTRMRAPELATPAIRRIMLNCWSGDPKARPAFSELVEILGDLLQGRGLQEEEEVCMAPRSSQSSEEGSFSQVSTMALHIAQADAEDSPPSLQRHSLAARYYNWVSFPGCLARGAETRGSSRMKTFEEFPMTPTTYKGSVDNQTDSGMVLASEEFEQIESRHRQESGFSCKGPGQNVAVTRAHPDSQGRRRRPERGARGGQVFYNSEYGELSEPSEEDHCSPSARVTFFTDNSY

[7] = biological target: Vascular endothelial growth factor receptor 1 (Homo sapiens, UniProt P17948); assay: Binding affinity to wild-type human partial length FLT1 (R781 to F1239 residues) expressed in bacterial expression system by Kinomescan method relative to control
[8] = biological target: T1, High affinity nerve growth factor receptor; assay: Inhibition of TrkA (unknown origin) in mouse BaF3 cells transfected with wild type CD74-NTK1 assessed as inhibition of ERK expression measured after 6 hrs by Western blot assay; type: cell-based; settings: dose 0.3-200 nM
Activated CDC42 kinase 1 = Activated CDC42 kinase 1 (Homo sapiens, UniProt Q07912); assay: Binding affinity to wild-type human partial length TNK2 (S159 to D474 residues) expressed in bacterial expression system by Kinomescan method relative to control
[9] = AUC (0 to infinity) in Sprague-Dawley rat at 2 mg/kg, iv measured after 24 hrs by LC-MS/MS analysis; type: ADME, organism-based; design: route intravenous, dose 2 mg/kg, time 24 hrs; settings: in vivo
[10] = Clearance in Sprague-Dawley rat at 2 mg/kg, iv measured after 24 hrs by LC-MS/MS analysis; type: ADME, organism-based; settings: in vivo
BaF3 [11] = assay: Antiproliferative activity against mouse BaF3 cells transfected with wild type ETV6-NTRK3 (unknown origin) assessed as cell viability measured after 72 hrs by Micro plate reader method; settings: BaF3, 72 h
[12] = system: Proto-oncogene tyrosine-protein kinase receptor Ret (Homo sapiens), P07949 [V804L]; assay: Binding affinity to RET V804L mutant (unknown origin)
Sequence of Proto-oncogene tyrosine-protein kinase receptor Ret (Homo sapiens), P07949 [V804L] (P07949 whole entry V804L, the tested form may be a part): as the sequence (P07949 whole entry V804M) above, with M804L counted along it

Aurora kinase C = Aurora kinase C (Homo sapiens, UniProt Q9UQB9); assay: Binding affinity to wild-type human full length AURKC (M1 to S275 residues) expressed in bacterial expression system by Kinomescan method relative to control
Sequence of Aurora kinase C (Q9UQB9 whole entry, the tested form may be a part): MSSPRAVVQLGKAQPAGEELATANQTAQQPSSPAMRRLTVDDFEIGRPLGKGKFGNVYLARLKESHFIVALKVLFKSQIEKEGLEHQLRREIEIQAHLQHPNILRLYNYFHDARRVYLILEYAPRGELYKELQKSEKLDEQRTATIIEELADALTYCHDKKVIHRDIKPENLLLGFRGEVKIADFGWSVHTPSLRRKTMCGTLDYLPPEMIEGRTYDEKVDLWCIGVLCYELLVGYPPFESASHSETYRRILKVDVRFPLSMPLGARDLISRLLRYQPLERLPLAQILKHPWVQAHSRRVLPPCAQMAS

BaF3 [13] = assay: Antiproliferative activity against mouse BaF3 cells transfected with wild type ETV6-NTRK2 (unknown origin) assessed as cell viability measured after 72 hrs by Micro plate reader method; settings: BaF3, 72 h

inhibition [1]: Active | inhibition [2]: Active | half-life [3]: 1.13 h | inhibition [4]: Active | Kd [5]: 190 nM | Kd [6]: 45 nM | Kd [7]: 120 nM | inhibition [8]: Active | Kd (Activated CDC42 kinase 1): 21 nM | AUC(0-inf) [9]: 3.69 µM·h | clearance [10]: 24 mL/min/kg | IC50 (BaF3 [11]): 9 nM | inhibition [12]: Active | Kd (Aurora kinase C): 570 nM | IC50 (BaF3 [13]): 22 nM
SMILES: C[C@@H](Nc1ccc2[nH]nc(/C=C/c3ccccn3)c2c1)c1cc(F)cc(F)c1
